Numbered stars: 1 amine (or outer) side, 2 acyl side, 3 side chain; on linkers, the order of the positions; unused ones are H or OH. Bridge positions count the residues as written; N and C are the ends. Square brackets hold non-standard residues; d marks the D form. Peptide text beside a SMILES is read from it. I, II: the chains in the order shown. * marks the point of attachment. Actinocin(9to1) = Cc1c2oc3c(C)ccc(C(=O)[*:1])c3nc-2c(C(=O)[*:2])c(N)c1=O; Sta = CC(C)C[C@H](N)[C@@H](O)CC(=O)O; NMeV = CN[C@H](C(=O)O)C(C)C; Isovaleryl = CC(C)CC(=O)*; Cbz = O=C(OCc1ccccc1)*; Sar = CNCC(=O)O
Columns and labels:
Format in all cases: cell-based, human
Hsp70 = Hsp70 levels by denaturing immunoprecipitation of [3H]-leucine radiolabeled HepG2 cells; conditions: for Induction of Hsp70 by protease inhibitors: HepG2, 4 hours pre-treatment, ALLN, ALLM 40 μg/ml, leupeptin, pepstatin A 50 μg/ml, E-64d 25 μg/ml, PMSF 1 mM, aprotinin 100 KIU/ml, Benz 1 mM, CIP 200 μM
Protocol: The HepG2 cell culture conditions were maintained as previously described (Dixon, et al., 1991). The cells were seeded into collagen-pre-coated dishes or six-well tissue culture plates and grown in complete medium containing minimum essential medium (MEM) with 0.1 mM nonessential amino acids, 1.0 mM sodium pyruvate, penicillin/streptomycin, and 10% fetal bovine serum. Cells were fed fresh complete medium every 3 days and maintained in a 5% CO2 incubator. All experiments were performed by using exponentially growing cells at 90-95% confluency. For heat shock treatment, the dishes were sealed with Parafilm and immersed in a water bath at 42° C. for indicated durations of time. Cells were incubated with ALLN alone at indicated concentrations or combined with other chemicals at 37° C. Cells were also incubated with different protease inhibitors alone at indicated concentrations or combined with other chemicals at 37° C.
(§1) HepG2 cells were preincubated for 4 hours in serum-free MEM and then radiolabeled with ^3 H-Leucine (150 μCi/ml) in a serum-free, leucine-free medium. Preincubation and labeling media each contained either 1.5% bovine serum albumin (BSA) alone, or BSA plus ALLN (40 μg/ml except as otherwise indicated), or BSA plus other protease inhibitors at concentrations indicated in the figure legends. At the indicated times, cells were removed from the 37° C. incubator and placed on ice, washed with cold phosphate-buffer saline (PBS) twice and lysed with lysis buffer containing 1% Triton X-100 (TX100), 1% deoxycholic acid (DOC) and 0.1% SDS in PBS containing proteinase inhibitors: 2 mM phenylmethylsulfonyl fluoride (PMSF); 2 μg/ml ALLN; 2 μg/ml leupeptin; and 2 μg/ml aprotinin. After a 30 min. incubation with lysis buffer at 4° C., the lysates were centrifuged at 14,000 g in a microcentrifuge for 5 min., and the supernatants were adjusted to 1% SDS concentration and boiled for 5 min. to denature the proteins. 1% TX100 was then added to dilute the lysates to a final concentration of 0.1% SDS. Cell lysates containing equal amounts of trichloroacetic acid (TCA)-insoluble radioactivity were used for immunoprecipitations by incubating with individual monoclonal antibody (1 μg/ml) for 2.5 hours at 4° C. Protein-A Sepharose 4B was added afterwards and the lysates incubated for another 1.5 hours at 4° C. to collect the immunocomplexes. After washing four times with 1×NET buffer (containing 0.5% TX100, 0.1% SDS), the immunocomplexes were mixed with sample buffer and boiled for 5 min. Following centrifugation, the supernatants were aliquoted for scintillation counting and for 3-15% gradient polyacrymide gel electrophoresis (SDS-PAGE) . The gels were later subjected to fluorography. All values are presented as the mean ± S.D. from three individual experiments except as otherwise indicated.
Denaturing immunoprecipitation was chosen because Hsp70 is a major cytosolic chaperone protein and it is co-immunoprecipitated with a number of other proteins under non-denaturingconditions (Beckmann, et al., 1990; Zhou, et al., 1995).

hsp70 (hsp72) mRNA = experiment: Northern blot of hsp70 (hsp72) mRNA in HepG2 cells; conditions: with ALLN 40 μg/ml, 4 hours; actinomycin D 10 μg/ml; cycloheximide 50 μg/ml
Protocol: HepG2 cells were treated with serum-free MEM containing either 1.5% BSA alone (Control, lane1), BSA plus 40 μg/ml of ALLN (ALLN, lane2), ALLN and 10 μg/ml of actinomycin D (A+AD, lane3), or ALLN and 50 μg/ml of cycloheximide (A+CXM, lane4). After 4 hours treatment at 37° C., cells were harvested. (B). HepG2 cells were treated with 40 μg/ml of ALLN in the serum-free MEM for up to 0 hour (lane1), 1 hour (lane2), 2 hours (lane3), and 3 hours (lane4) and then harvested without recovery. Or after treatment for 3 hours in the presence of ALLN as above, the ALLN containing medium were removed, cells were washed and fed fresh medium containing only BSA for recovery of up to 1 hour (lane5), 3 hours (lane6), 5 hours (lane7) or 7 hours (lane8). The total RNA was prepared, and equal amounts of the samples were loaded and run on a 1% formaldehyde-agarose gel, blotted onto a nylon membrane, and subsequently hybridized with specific synthetic oligonucleotide probes for hsp70 mRNA as described under Experimental Details. The position of 28S and 18S rRNA are shown for reference.
Total RNA was prepared using the procedure of Chomczynski and Sacchi (Chomczynski, et al., 1987) and a commercially prepared reagent, TRISOLV™ (Biotecx Laboratories Inc., Tex.) . Equal amounts of tRNA samples (10 μg) were size-fractionated on a 1% agarose-formaldehyde gel according to the methods described (Maniatis, et al., 1982) and transferred to a piece of QIAGEN plus nylon membrane. To determine loading and transfer efficiency, RNA was stained with ethidium bromide before and after transfer. The membrane was baked for 30 min. at 80° C. in vacuo (a vacuum) followed by UV cross-linking. It was then incubated for 4 hours at 65° C. in a prehybridization mixture containing 10% dextran sulfate, 1% SDS, 1M sodium chloride, 50 mM Tris-HCl (pH 7.5) and 100 μg/ml denatured salmon sperm DNA. Hybridization was carried out for 18 hours at 65° C. in the same buffer with a ^32 P-labeled (1×10^6 cpm/ml) 40-mer oligonucleotide probe to the untranslated 5' region of a human hsp70 gene (Oncogene Science). […] The membrane was then washed four times with 2×SSC, 0.1% SDS at room temperature, one time at 65° C. for 30 min., and one time at room temperature again for 5 min., and finally rinsed with 2×SSC at room temperature. This membrane was air dried and exposed to X-ray film at -80° C. for 48 hours.
Total RNA was isolated from HepG2 cells which had been incubated for 4 hours at 37° C. (FIG. 5A) with MEM containing BSA alone (Control, lane1), BSA plus 40 μg/ml of ALLN (ALLN, lane2), BSA plus ALLN and […] of actinomycin D (A+AD, lane3) or BSA plus ALLN and 50 μg/ml of cycloheximide (A+CXM, lane4). A radioprobe containing a unique sequence specific for the 5' untranslated region of hsp72 (inducible form) (Freeman et al., 1993) was used for Northern blot analysis.

HepG2 cells = experiment: Total incorporation of radiolabel (TCA cpm) as indicator of cell toxicity, HepG2; conditions: HepG2, 4 hours; MG132 10 or 30 μM; lactacystin 10 μM
Protocol: as §1

HSF1 = experiment: EGS cross-linking and Western blot of HSF1 oligomeric forms in HepG2 cells; conditions: cycloheximide 50 μg/ml with ALLN 40 μg/ml, 2 hours
Protocol: FIGS. 6A-6B: ALLN affects the trimerization of HSF. HepG2 cells were treated with serum-free MEM containing 1.5% BSA for 2 hours at 37° C. without any additions (lane1), at 37 ° C. but containing 40μg/ml of ALLN in the medium (lane2), at 37° C. in a medium containing both ALLN and 50 μg/ml of cycloheximide (lane3) , at 42° C. alone (lane4), or at 42° C. plus cycloheximide in the medium (lane5). Cell lysates were prepared as described under Experimental Details. The lysates were either directly run on the SDS-PAGE (A) to show the steady-state protein levels of HSF1 or subjected to cross-linking with ethylene glycol bis sucrinimidylsuccinate (EGS) before running the gel (B) to show the oligomeric forms of HSF1. The proteins were then transfered to a nitrocellulose membrane and immunoblotted with anti-human HSF1 antibody. Arrows on the right side indicates the monomeric, dimeric or trimeric forms of HSF1, respectively. This experiment was repeated three times with identical results.
For measurement of the steady-state HSF1 protein levels, whole cell extracts were prepared by lysing the cells directly with 2×SDS-sample buffer (Maniatis, et al., 1982). For chemical cross-linking experiments, whole-cell extracts were prepared as described (Mosser, et al., 1988). Briefly, the cold PBS-washed cell pellets were quickly and repeatedly frozen in liquid nitrogen. […]

aprotinin
Induction of Hsp70 by protease inhibitors (Hsp70): No induction

CC(C)CC(=O)N[C@H](C(=O)N[C@H](C(=O)N[C@@H](CC(C)C)[C@@H](O)CC(=O)N[C@@H](C)C(=O)N[C@@H](CC(C)C)[C@@H](O)CC(=O)O)C(C)C)C(C)C [pepstatin] (Isovaleryl-VV[Sta]A[Sta]-OH)
Induction of Hsp70 by protease inhibitors (Hsp70): No induction

Cc1c2oc3c(C)ccc(C(=O)N[C@@H]4C(=O)N[C@H](C(C)C)C(=O)N5CCC[C@H]5C(=O)N(C)CC(=O)N(C)[C@@H](C(C)C)C(=O)O[C@@H]4C)c3nc-2c(C(=O)N[C@@H]2C(=O)N[C@H](C(C)C)C(=O)N3CCC[C@H]3C(=O)N(C)CC(=O)N(C)[C@@H](C(C)C)C(=O)O[C@@H]2C)c(N)c1=O [actinomycin D] (I: T[dV]P[Sar][NMeV] / II: T[dV]P[Sar][NMeV]; ester I:1-I:C, II:1-II:C; linker I:N-II:N via Actinocin(9to1))
Effect of co-treatment on ALLN-induced hsp70 (hsp72) mRNA (hsp70 (hsp72) mRNA): abolished the effects of ALLN

CC(=O)N[C@@H](CC(C)C)C(=O)N[C@@H](CC(C)C)C(=O)N[C@H](C=O)CCCNC(=N)N [Leupeptin, leupeptin]
Induction of Hsp70 by protease inhibitors (Hsp70): ineffective

CC(C)C[C@@H](C=O)NC(=O)[C@H](CC(C)C)NC(=O)[C@H](CC(C)C)NC(=O)OCc1ccccc1 [MG132, Cbz-leucyl-leucyl-leucinal] (Cbz-Leu-Leu-Leu-aldehyde)
Induction of Hsp70 levels by proteasome inhibitors (Hsp70; HepG2, 4 hours, MG132 10 μM or 30 μM, lactacystin 10 μM, 30 min radiolabeling): induced Hsp70 levels dramatically | Toxicity to the cells (TCA-precipitable radioactivities) (HepG2 cells): without obvious toxicity

O=S(=O)(F)Cc1ccccc1 [PMSF, phenylmethylsulfonyl fluoride]
Induction of Hsp70 by protease inhibitors (Hsp70): No induction

C[C@@H]1C[C@@H]([C@H](O)CC2CC(=O)NC(=O)C2)C(=O)[C@@H](C)C1 [cycloheximide]
Effect of co-treatment on ALLN-induced hsp70 (hsp72) mRNA (hsp70 (hsp72) mRNA): abolished | Effect of co-treatment on ALLN-induced HSF1 trimerization (HSF1): abolished the effect of ALLN on HSF1 trimerization
